Reference: patent US20110288116A1, “IAP INHIBITORS” (TETRALOGIC PHARMACEUITCAL CORPORATION, priority 2008, published 2011)

Target: T1, XIAP BIR-3 (Homo sapiens, UniProt P98170)
T1 construct: 40 nM of the BIR3 for 15 min at RT
Test: Fluorescence polarization binding to XIAP BIR-3 (competition with AbuRPF-K(5-Fam)-NH2)
Conditions: XIAP BIR-3 (default where cell does not indicate otherwise); reported as range class
Description: The binding affinities of the compounds are reported as a Kd value. Briefly, various concentrations of test peptides were mixed with 5 nM of the fluorescently labeled peptide (i.e., a mutated N-terminal Smac peptide—AbuRPF-K(5-Fam)-NH2) and 40 nM of the BIR3 for 15 min at RT in […] of 0.1M Potassium Phosphate buffer, pH 7.5 containing […] bovine g-globulin. Following incubation, the polarization values (mP) were measured on a Victor2V (available from PerkinElmer Life Sciences) using a 485 nm excitation filter and a 520 nm emission filter. The reported Kd values are supplied as ranges (A=<0.1 μM, B=0.1 μM to C=>1 μM to 10 μM, D=>10 μM) and, unless otherwise indicated, are the Kd for XIAP BIR-3.

T1 sequence (P98170 241-356 limits assumed): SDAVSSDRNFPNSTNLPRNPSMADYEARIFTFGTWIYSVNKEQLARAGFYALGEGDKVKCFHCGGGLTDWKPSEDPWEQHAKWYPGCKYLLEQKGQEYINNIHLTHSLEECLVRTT

Structure (SMILES)	Kd
CCN[C@@H](C)C(=O)N[C@H](C(=O)N1CC[C@H](OC)[C@H]1Cc1cn(C)c2cc(F)ccc12)[C@@H](C)OC [A′]	> 100 nM
CN[C@@H](C)C(=O)N[C@H](C(=O)N1C[C@@H](O)C[C@H]1Cc1c[nH]c2ncccc12)[C@@H](C)OC [Compound A, N-{1-[4-Hydroxy-2-(1H-pyrrolo[2,3-b]pyridin-3-ylmethyl)-pyrrolidine-1-carbonyl]-2-methoxy-propyl}-2-methylamino-propionamide]	< 100 nM
CN[C@@H](C)C(=O)N[C@H](C(=O)N1CCC[C@H]1Cc1c[nH]c2ncccc12)[C@@H](C)OC [D]	< 100 nM
CC[C@H](NC)C(=O)N[C@H](C(=O)N1CC[C@H](OC)[C@H]1Cc1c[nH]c2cc(F)ccc12)[C@@H](C)OC [D′]	> 10000 nM
CN[C@@H](C)C(=O)N[C@H](C(=O)N1CC[C@@H](O)[C@H]1Cc1c[nH]c2ccccc12)[C@@H](C)O [FF′]	< 100 nM
CCN[C@@H](C)C(=O)N[C@H](C(=O)N1CC[C@H](OC)[C@H]1Cc1c[nH]c2cc(F)ccc12)[C@@H](C)OC [G′]	> 10000 nM
CCN[C@@H](C)C(=O)N[C@H](C(=O)N1CC[C@H](OC)[C@H]1Cc1c[nH]c2ncccc12)[C@@H](C)OC [HH]	1000 to 10000 nM
CC[C@H](NC)C(=O)N[C@H](C(=O)N1CC[C@@H](O)[C@H]1Cc1c[nH]c2ccccc12)[C@@H](C)OC [HH′]	< 100 nM
CN[C@@H](C)C(=O)N[C@H](C(=O)N1CC[C@H](OC)[C@H]1Cc1c[nH]c2cc(F)ccc12)C(C)(C)C [H′]	> 10000 nM
CN[C@@H](C)C(=O)N[C@H](C(=O)N1CC[C@@H](O)[C@H]1Cc1c(-c2ccc(F)cc2)[nH]c2ccccc12)C1CCCCC1 [KKK]	> 100 nM

Further lines, results first:

Kd	Structure (SMILES)
< 100 nM	CN[C@@H](C)C(=O)N[C@H](C(=O)N1CC[C@H](O)[C@H]1Cc1c[nH]c2cc(F)ccc12)[C@@H](C)OC (relative stereo) [RR, trans-2R—[N-{1-[2-(6-Fluoro-1H-indol-3-ylmethyl)-3-hydroxy-pyrrolidine-1-carbonyl]-2-methoxy-propyl}]-2-methylamino-propionamide]
< 100 nM	CN[C@@H](C)C(=O)N[C@H](C(=O)N1CC[C@@H](O)[C@H]1Cc1c(-c2ccc(F)cc2)[nH]c2ccccc12)C(C)C [BBB]
< 100 nM	CC[C@H](NC)C(=O)N[C@H](C(=O)N1C[C@@H](O)C[C@H]1Cc1c[nH]c2ncccc12)C1CCCCC1 [B]
< 100 nM	CN[C@@H](C)C(=O)N[C@H](C(=O)N1CC[C@H](OC)[C@H]1Cc1cn(C)c2cc(F)ccc12)[C@@H](C)OC [B′]
> 100 nM	CCN[C@@H](CC)C(=O)N[C@H](C(=O)N1CCC[C@H]1Cc1c[nH]c2c1ccc[n+]2[O-])[C@@H](C)OC [Compound R]
< 100 nM	CC[C@H](NC)C(=O)N[C@H](C(=O)N1CC[C@@H](O)[C@H]1Cc1c[nH]c2ccccc12)[C@@H](C)O [EE′]
< 100 nM	CN[C@@H](C)C(=O)N[C@H](C(=O)N1CCC[C@H]1Cc1c[nH]c2ncccc12)C(C)(C)C [E]
1000 to 10000 nM	CCN[C@@H](C)C(=O)N[C@H](C(=O)N1CC[C@H](OC)[C@H]1Cc1c[nH]c2ncccc12)C(C)(C)C [GG]
< 100 nM	CCN[C@@H](CC)C(=O)N[C@H](C(=O)N1CCC[C@H]1Cc1c[nH]c2ncccc12)[C@@H](C)OC [G]
< 100 nM	CCN[C@@H](C)C(=O)N[C@H](C(=O)N1CCC[C@H]1Cc1c[nH]c2ncccc12)[C@@H](C)OC [H]
1000 to 10000 nM	CCN[C@@H](C)C(=O)N[C@H](C(=O)N1CC[C@H](OC)[C@H]1Cc1c[nH]c2ncccc12)C(C)C [II]
< 100 nM	CN[C@@H](C)C(=O)N[C@H](C(=O)N1CC[C@@H](O)[C@H]1Cc1c[nH]c2ccccc12)[C@@H](C)OC [II′]
> 100 nM	CCNCC(=O)N[C@H](C(=O)N1CCC[C@H]1Cc1c[nH]c2ncccc12)[C@@H](C)OC [I]
> 100 nM	CN[C@@H](C)C(=O)N[C@H](C(=O)N1CC[C@H](C)[C@H]1Cc1c[nH]c2cc(F)ccc12)[C@@H](C)OC [JJ, N-{1-{1-2-(6-fluoro-1H-indol-3-ylmethyl)-3-methyl-pyrrolidine-1-carbonyl]-2-methoxy-propyl}-2-methylamino-propionamide]
